Measured values reported in PMC11149917, “Translational and Therapeutic Evaluation of RAS-GTP Inhibition by RMC-6236 in RAS-Driven Cancers” (Cancer Discovery, 2024).

Columns and labels:
[1] = Mouse clinical trial (MCT), body weight change; assay type: in vivo; details: 25 mg/kg daily
[2] = tested on: pERK in NCI-H441 xenograft tumors; test: IHC whole-slide quantification; assay type: in vivo, mouse; details: control 33.1
Description: (§1) All tissues were fixed for up to 24 hours using 10% neutral buffered formalin and then moved to 70% ethanol for long-term storage. FFPE sections (4 µm) were stained on the Biocare intelliPATH automated staining platform using the manufacturer’s recommended settings.
(§2) Anti–phospho-p44/42 MAPK (Erk1/2; Thr202/Tyr204) rabbit monoclonal antibody (Cell Signaling Technology, cat no. 4370, clone: D13.14.4E) was used at 1:200 with citrate-based pH 6.2 heat-induced epitope retrieval; an isotype control (rabbit IgG) was used under the same conditions.
(§3) All tissue sections were incubated with Biocare Peroxidase Blocker (Biocare, cat no. PX968) and Background Punisher (Biocare, cat no. BP974M) to block nonspecific background. MACH4 HRP-polymer Detection System (Biocare, cat no. MRH534) was used to detect rabbit primary antibodies.
(§4) DAB-stained slides were scanned and digitized with a Huron TissueScope LE120 whole-slide scanner at 200× magnification.
(§5) The EpCAM staining was used to identify epithelial cells. First, the area to be analyzed was delineated, excluding necrotic regions. The random forest tumor classifier from the HALO Image Analysis package was used to identify the tumor compartment. Three classes were created: glass, tumor (EpCAM-positive), and stroma. The tumor class mark was then copied onto the serial sections stained with various markers to perform the image analysis only on the tumor compartment.
(§6) Quantification of P-ERK and pS6 was performed with the HALO Image Analysis software from Indica labs using the Area Quantification module. The analysis was performed only on the tumor compartment copied from the EpCAM slide. The software was tuned to detect positive DAB staining (brown color). Percentage of area positivity was chosen to represent the results (area positive for brown/total area); and subjected to statistical analysis using GraphPad Prism (Dunnett multiple comparisons test).

[3] = tested on: pERK in Capan-2 xenograft tumors; test: IHC whole-slide quantification; assay type: in vivo, mouse; details: for pERK (% positive area): control 32.3
Description: as §1, §2, §3, §4, §5, §6

[4] = tested on: DUSP6 mRNA in human tumors; test: PK/PD model scaled to humans
Description: Tumor growth was modeled using the approach previously described by Simeoni and colleagues ([45]). As detailed previously, tumor volume data were collected from mice bearing either NCI-H441 or Capan-2 xenograft tumors in 28-day efficacy studies (Supplementary Table S9). Estimated intrinsic tumor growth parameters include initial tumor volume, W0, which was set to the observed initial tumor volume, and the exponential and linear growth rates constants, λ0 and λ1, which were estimated from vehicle-treated animal tumor growth. Drug-specific parameters include a measure of drug potency, k2, and a transfer rate constant, k1, which describes cell death kinetics. A tumor stasis concentration threshold (CT) was calculated as λ0/k2 and converted to a human equivalent by adjusting for species differences in blood-plasma partitioning and plasma protein binding as discussed in Supplementary Methods. Human PK parameters were predicted via multispecies allometric scaling or assigned as the preclinical average and used to simulate mean steady-state human exposure at various dose levels.
The mouse PK/PD model was scaled to humans by incorporating human-specific plasma protein binding, blood–plasma partitioning, and estimated human blood PK parameters. The tumor partitioning rate constants were held constant from the mouse model under the assumption that RMC-6236 will partition similarly from free plasma into human-derived xenografts or clinical tumor tissue. Similarly, parameters governing DUSP6 expression were kept the same and assumed to reflect a similarly sensitive tumor in humans. Human simulations were conducted for multiple clinical dose levels using mean PK parameters and assuming an average body weight of 70 kg.

[5] = tested on: eCT26 (Kras^G12C/G12C) tumors in BALB/c mice; test: Syngeneic model study; assay type: in vivo, mouse; details: monotherapy 25 mg/kg, 14 days
Description: LU99 cells (JCRB0080) were stably modified with lentivirus-based pHBLV-CMV-MCS-EF1-fLuc-T2A-puro vector to generate luciferase-expressing LU99-Luc cells. NCI-H1373 cells (ATCC CRL-5866) were stably modified with lentivirus-based pHBLV-CMV-MCS-EF1-fluc-T2A-PURO vector to generate luciferase-expressing NCI-H1373-Luc cells. The eCT26 Kras^G12C^/G12CAbcb1^−^/^− (clone I20) and eCT26 Kras^G12D^/G12DAbcb1^−^/^− (clone I12) cell lines were engineered from the murine CT26 homozygous Kras^G12D tumor cell line (ATCC CRL-2638). All Kras^G12D alleles were replaced with Kras^G12C using CRISPR technology at Synthego. Additionally, the P-glycoprotein drug transporter, Abcb1a and Abcb1b, were knocked out using CRISPR guide sequences […] and […], respectively. The homozygous G12C mutation and the Abcb1 knockout were confirmed by Sanger sequencing in the clone selected and were used for in vivo experiments.
Female BALB/c immunocompetent mice and female NOD-SCID/IL2Rg(null; NSG) immune-deficient mice (6–8 weeks old) were purchased from the Jackson Laboratory and were acclimated at Revolution Medicines for 7 days before cell implantation. […] Treatments were initiated at the time of randomization when the average tumor volume reached 100 to 120 mm^3. The animals were assigned into groups using Studylog randomization software, performing stratified randomization based on their tumor volumes. […]

CCn1c(-c2cc(N3CCN(C)CC3)cnc2[C@H](C)OC)c2c3cc(ccc31)-c1csc(n1)C[C@H](NC(=O)[C@H]1C[C@@H]1C)C(=O)N1CCC[C@H](N1)C(=O)OCC(C)(C)C2 [RMC-6236]
RMC-6236 % Mean Body Weight Change ([1]; CRC007, CRC PDX, day 28): -5.78%
RMC-6236 % Mean Body Weight Change ([1]; CRC022, CRC PDX, day 28): -8.40%
RMC-6236 % Mean Body Weight Change ([1]; CRC043, CRC PDX, day 27): -2.90%
RMC-6236 % Mean Body Weight Change ([1]; CRC078, CRC PDX, day 27): -13.26%
RMC-6236 % Mean Body Weight Change ([1]; CTG-0796, CRC PDX, day 28): 7.32%
pERK (% positive area) ([2]; NCI-H441 (3 mg/kg), 8h): 6.8%
pERK (% positive area) ([2]; NCI-H441 (3 mg/kg), 24h): 7.7%
pERK (% positive area) ([2]; NCI-H441 (3 mg/kg), 48hr): 8.6%
pERK (% positive area) ([2]; NCI-H441 (10 mg/kg), 8h): 0.949%
pERK (% positive area) ([2]; NCI-H441 (10 mg/kg), 24h): 3.6%
pERK (% positive area) ([2]; NCI-H441 (10 mg/kg), 48hr): 3.6%
pERK (% positive area) ([2]; NCI-H441 (25 mg/kg), 8h): 0.23%
pERK (% positive area) ([2]; NCI-H441 (25 mg/kg), 24h): 1.1%
pERK (% positive area) ([2]; NCI-H441 (25 mg/kg), 48hr): 3.4%
pERK (% positive area) ([3]; Capan-2 (3 mg/kg), 8h): 7.6%
pERK (% positive area) ([3]; Capan-2 (3 mg/kg), 24h): 14.0%
pERK (% positive area) ([3]; Capan-2 (3 mg/kg), 48hr): 17.6%
pERK (% positive area) ([3]; Capan-2 (10 mg/kg), 8h): 2.8%
pERK (% positive area) ([3]; Capan-2 (10 mg/kg), 24h): 3.7%
pERK (% positive area) ([3]; Capan-2 (10 mg/kg), 48hr): 14.3%
pERK (% positive area) ([3]; Capan-2 (25 mg/kg x 7d), 8h): 4.4%
pERK (% positive area) ([3]; Capan-2 (25 mg/kg x 7d), 24h): 9.2%
pERK (% positive area) ([3]; Capan-2 (25 mg/kg x 7d), 48hr): 18.9%
pERK (% positive area) ([3]; Capan-2 (25 mg/kg), 8h): 3.1%
pERK (% positive area) ([3]; Capan-2 (25 mg/kg), 24h): 6.3%
pERK (% positive area) ([3]; Capan-2 (25 mg/kg), 48hr): 14.8%
inhibition at 25 mg/kg ([3]; Mus musculus, Capan-2, 25 mg/kg, up to 24 hours post-dose, read-out: inhibition of pERK levels in tumors (IHC)): > 80%
Ka ([4]; Human Predictions): 2 h⁻¹
V/F ([4]; Human Predictions): 10.83 L/kg
estimated maximal DUSP6 suppression in human tumors ([4]; daily dose of approximately 100 mg, steady state, transient): ≥ 90%
estimated mean DUSP6 suppression in human tumors ([4]; daily dose of approximately 300 mg, across the dosing interval at steady state): ≥ 90%
animals maintaining mCRs following treatment withdrawal [5]: 60%
